What was measured:
chymotrypsin = target: T1, chymotrypsin (Bos taurus, UniProt P00766); assay: Determination of chymotrypsin-inhibitory activity; format: biochemical, bovine; settings: read-out: inhibition rate, chymotrypsin
T1 construct: purchased Sigma; host or cells: bovine pancreas
Summary of the method: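 Bovine pancreatic chymotrypsin (0.2 μM enzyme solution) assayed in 50 mM Tris-HCl, pH 8.0, with the fluorogenic substrate Suc-Leu-Leu-Val-Tyr-MCA. Fluorescence was read with and without inhibitor, and percent inhibition was calculated from the fluorescence values.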

elastase = target: T2, elastase (Sus scrofa, UniProt P00772); assay: Determination of elastase-inhibitory activity; format: biochemical, swine; settings: read-out: inhibition rate, elastase
T2 construct: purchased Sigma; host or cells: swine pancreas
T2 sequence (P00772 27-266): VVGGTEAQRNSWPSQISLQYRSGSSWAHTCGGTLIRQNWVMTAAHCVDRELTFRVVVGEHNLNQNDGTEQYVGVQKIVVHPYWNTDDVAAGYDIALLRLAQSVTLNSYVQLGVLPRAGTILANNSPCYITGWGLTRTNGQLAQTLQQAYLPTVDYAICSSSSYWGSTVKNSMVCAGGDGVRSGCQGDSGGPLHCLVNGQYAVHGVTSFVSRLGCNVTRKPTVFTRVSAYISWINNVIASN
Summary of the method: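 Porcine pancreatic elastase (0.2 μM solution) with 200 μM succinyl-Ala-Pro-Ala-4-methylcoumarinamide substrate solution in 1 mM Tris-HCl pH 8.5. Fluorescence measured and inhibition rate calculated by formula.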

trypsin = target: T3, trypsin (Bos taurus, UniProt P00760); assay: Determination of trypsin-inhibitory activity; format: biochemical, bovine; settings: read-out: inhibition rate, trypsin
T3 construct: purchased Sigma; host or cells: bovine pancreas
T3 sequence (P00760 24-246): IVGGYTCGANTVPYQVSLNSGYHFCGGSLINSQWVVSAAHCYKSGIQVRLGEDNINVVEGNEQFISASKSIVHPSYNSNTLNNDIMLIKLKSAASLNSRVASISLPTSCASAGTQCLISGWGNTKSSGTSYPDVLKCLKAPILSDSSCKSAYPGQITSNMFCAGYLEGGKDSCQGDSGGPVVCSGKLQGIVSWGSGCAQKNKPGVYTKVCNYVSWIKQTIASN
Summary of the method: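 Bovine pancreatic trypsin and compound in 50 mM Tris-HCl pH 8.0 with Pro-Phe-Arg-MCA substrate, 1 h at 30 °C, stopped on ice. Fluorescence at ex 370/em 440 nm. Inhibition rate from compound, no-enzyme and no-compound wells.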

leucine aminopeptidase = assay: Determination of leucine aminopeptidase-inhibitory activity; format: biochemical, swine; set-up: unit not given here
Summary of the method: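 Swine kidney leucine aminopeptidase ([…] enzyme solution) was measured in 50 mM Tris-HCl pH 8.0 with 7-leucyl-4-methyl-coumarinamide (200 μM substrate solution). Inhibition rate was calculated from fluorescence readings.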

cathepsin B = target: T4, cathepsin B (Bos taurus, UniProt P07688); assay: Determination of cathepsin B-inhibitory activity; format: biochemical, bovine; settings: read-out: inhibition rate, cathepsin B
T4 construct: purchased Sigma; host or cells: bovine spleen
Summary of the method: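 Bovine spleen cathepsin B (0.02 μM solution) was assayed in 100 mM sodium phosphate, pH 6.0, with 1.33 mM EDTA. The substrate was Z-Phe-Arg-4-methylcoumarinamide (200 μM solution). Percent inhibition was calculated from fluorescence readings.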

prolyl endopeptidase = target: T5, prolyl endopeptidase (Rattus norvegicus, UniProt O70196); assay: Prolyl endopeptidase-inhibitory activity; format: biochemical; settings: for inhibition at 0.1 µM / inhibition at 1 µM: read-out: inhibition rate, prolyl endopeptidase; for IC50: prolyl endopeptidase extracted from rat brain, pH 7.0, 30° C., read-out: IC50
T5 construct: prolyl endopeptidase extracted from rat brain; from tissue; host or cells: rat brain
T5 sequence (O70196 whole entry): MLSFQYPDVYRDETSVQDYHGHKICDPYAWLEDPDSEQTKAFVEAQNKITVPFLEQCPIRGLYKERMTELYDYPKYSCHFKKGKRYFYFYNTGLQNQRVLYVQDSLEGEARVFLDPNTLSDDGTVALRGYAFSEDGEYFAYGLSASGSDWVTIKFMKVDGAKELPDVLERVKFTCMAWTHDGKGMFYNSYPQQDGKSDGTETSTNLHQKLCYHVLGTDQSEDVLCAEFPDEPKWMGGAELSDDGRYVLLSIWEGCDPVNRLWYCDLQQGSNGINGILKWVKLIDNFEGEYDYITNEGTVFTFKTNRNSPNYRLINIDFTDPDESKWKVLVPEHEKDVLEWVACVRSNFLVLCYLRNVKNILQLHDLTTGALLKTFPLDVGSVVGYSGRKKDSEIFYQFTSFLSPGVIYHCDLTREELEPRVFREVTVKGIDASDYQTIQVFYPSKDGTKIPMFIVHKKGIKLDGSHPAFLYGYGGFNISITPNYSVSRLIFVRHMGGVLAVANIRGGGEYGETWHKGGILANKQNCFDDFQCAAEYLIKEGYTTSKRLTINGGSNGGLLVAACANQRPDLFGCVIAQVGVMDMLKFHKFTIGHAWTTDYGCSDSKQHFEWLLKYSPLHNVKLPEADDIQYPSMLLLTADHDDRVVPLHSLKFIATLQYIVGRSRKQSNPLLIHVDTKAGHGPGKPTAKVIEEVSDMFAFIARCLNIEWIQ
Summary of the method: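 Rat brain prolyl endopeptidase was preincubated with compound for 30 min at 30 °C in 0.1 M potassium sodium phosphate, pH 7.0. Substrate Suc-Gly-Pro-MCA was then added from a 0.2 mM stock and the reaction run 1 h at 30 °C. After ice stop, fluorescence was read (ex 370/em 440 nm), and IC50 was estimated graphically from % inhibition.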

SMILES | inhibition at 0.1 µM (chymotrypsin) [%] | inhibition at 0.1 µM (elastase) [%] | inhibition at 0.1 µM (trypsin) [%] | inhibition rate, leucine aminopeptidase (leucine aminopeptidase; 0.1 μM) | inhibition at 0.1 µM (cathepsin B) [%] | inhibition at 0.1 µM (prolyl endopeptidase) [%] | IC50 (prolyl endopeptidase) [nM] | inhibition at 1 µM (chymotrypsin) [%] | inhibition at 1 µM (elastase) [%] | inhibition at 1 µM (trypsin) [%] | inhibition rate, leucine aminopeptidase (leucine aminopeptidase; 1 μM) | inhibition at 1 µM (cathepsin B) [%] | inhibition at 1 µM (prolyl endopeptidase) [%]
Cc1ccc([S@@+]([O-])CC(=O)[C@@H]2CCCN2C(=O)[C@@H]2CCCN2C(=O)OCc2ccccc2)cc1 [Compound 13, (2S)-1-(N-Benzyloxycarbonyl-L-prolyl)-2-{[(S)-p-tolyl-sulfinyl]acetyl}pyrrolidine] | 0 | 0 | 0 | 0 | 0 | 98 | 0.3 |  |  |  |  |  | 
O=C(CSc1ccccc1)[C@@H]1CCCN1C(=O)[C@@H]1CCCN1C(=O)OCc1ccccc1 [Compound 1, (2S)-1-(N-Benzyloxycarbonyl-L-prolyl)-2-[(Phenylthio)acetyl]-pyrrolidine] | 20 | 0 | 0 | 0 | 0 | 90 | 0.3 |  |  |  |  |  | 
O=C(C[S+]([O-])c1ccc([N+](=O)[O-])cc1)[C@@H]1CCCN1C(=O)[C@@H]1CCCN1C(=O)OCc1ccccc1 (stereo partly drawn) [Compound 7, (2S)-1-(N-Benzyloxycarbonyl-L-prolyl)-2-[(4-nitrophenylsulfinyl)acetyl]pyrrolidine] | 0 | 0 | 0 | 0 | 20 | 97 | 1 |  |  |  |  |  | 
O=C(COc1ccccc1)[C@@H]1CCCN1C(=O)[C@@H]1CCCN1C(=O)OCc1ccccc1 [Compound 4, (2S)-1-(N-Benzyloxycarbonyl-L-prolyl)-2-(phenoxyacetyl)-pyrrolidine] | 0 | 0 | 0 | 0 | 0 | 98 | 0.3 |  |  |  |  |  | 
Cc1ccc([S@@+]([O-])CC(=O)[C@@H]2CCCN2C(=O)[C@@H]2CCCN2C(=O)CCc2ccccc2)cc1 [Compound 16, (2S)-1-[N-(3-Phenylpropionyl)-L-prolyl]-2-{[(S)-p-tolylsulfinyl]acetyl}pyrrolidine] | 0 | 0 | 0 | 0 | 0 | 99 | 1.5 |  |  |  |  |  | 
COc1ccc(OCC(=O)[C@@H]2CCCN2C(=O)[C@@H]2CCCN2C(=O)COc2ccccc2)cc1 [Compound 47, (2S)-2-(4-Methoxyphenoxyacetyl)-1-[N-(phenoxyacetyl)-L-prolyl]pyrrolidine] |  |  |  |  |  |  | 50 | 0 | 0 | 0 | 0 | 0 | 98
COc1ccc([S+]([O-])CC(=O)[C@@H]2CCCN2C(=O)[C@@H]2CCCN2C(=O)OCc2ccccc2)cc1 (stereo partly drawn) [Compound 6, (2S)-1-(N-Benzyloxycarbonyl-L-prolyl)-2-[(4-methoxyphenylsulfinyl)acetyl]pyrrolidine] | 0 | 0 | 0 | 0 | 20 | 98 | 0.65 |  |  |  |  |  | 
COc1ccc(OCC(=O)[C@@H]2CCCN2C(=O)[C@@H]2CCCN2C(=O)CNc2ccccc2)cc1 [Compound 48, (2S)-2-(4-Methoxyphenoxyacetyl)-1-[N-(N-phenylglycyl)-L-prolyl]pyrrolidine] |  |  |  |  |  |  | 60 | 0 | 0 | 0 | 0 | 0 | 90
CCOC(=O)CN(Cc1ccccc1)C(=O)N1CCC[C@H]1C(=O)N1CCC[C@H]1C(=O)COc1ccccc1 [Compound 52, (2S)-1-{N-[N-Benzyl-N-(ethoxycarbonylmethyl)aminocarbonyl]-L-prolyl}-2-(phenoxyacetyl)pyrrolidine] | 0 | 0 | 0 | 0 | 0 | 97 | 2 |  |  |  |  |  | 
